# Reference: patent US4083994A, “Choleretics” (Hisamitsu Pharmaceutical Co., Inc., priority 1975, dated 1978)
# What was measured:
# bile secretion [1] = experiment: Bile secretion test in rats; format: in vivo, male Wistar rats; conditions: rat, oral, volume in 1 h before administration = 100%
# Experimental: Male Wistar rats weighing 200-210 g were fasted overnight and laparotomized under urethane anesthesia(Subcutaneous injection at a dose of 1.5 g/kg). A polyethylene tube was inserted into the common bile duct. The bile was collected for one hour from 30 minutes after the operation. Subsequently, the animals were given orally the test drugs, each 50 mg of which was suspended in 1 ml of 5% gum arabic aqueous solution. The bile was collected for 5 hours after the drug administration. The volume of the bile secreted at hourly intervals after the drug administration was expressed in %, defining the volume secreted for one hour before the drug administration as 100%, as shown in Table 1.
# About 500 mg of p-menth-1-ene-8,9-diol were weighed accurately, and suspended in 10 ml of 5% gum arabic aqueous solution. […] Male rats of Wistar strain weighing 200 g were fasted overnight, anesthetized by subcutanous injection of 0.3 g of urethane and laparotomized. A polyethylene tube was inserted into the common bile duct. The bile was collected for one hour from 30 minutes after the operation. […]
# About 500 mg of 9-acetoxy-p-menth-1-en-8-ol was weighed accurately and suspended in 10ml of 5% gum arabic aqueous solution. […] Male rats of Wistar strain weighing about 210 g were fasted overnight and anesthetized by subcutaneous injection of 0.32 g of urethane and then laparotomized. A polyethylene tube was inserted into the common bile duct, and the bile secreted through the duct was collected for one hour from 30 minutes after the operation. Subsequently, the choleretic of the present invention was administered orally in a volume of 1.05 ml (250 mg/kg).
# bile secretion [2] = experiment: Bile secretion test in dogs; format: in vivo, male mongrel dogs; conditions: dog, into duodenum, volume in 1 h before administration = 100%
# Experimental: Male mongrel dogs weighing approximately 8 kg were anesthetized with intravenous injection of […] of pentobarbital and further with subcutaneous injection of urethane at a dose of 1.0 g/kg and laparotomized. One canula was inserted into the common bile duct and directed to the liver for collection of the bile, and the other canula was inserted into the duodenum for the drug administration. The cholecystic duct was ligated and the gallbladder bile was aspirated with an injection syringe. The operation was finished by suture of the peritoneum. The bile was collected for one hour from 30 minutes after the operation. The animals were given the test drugs, each 50 mg of which was suspended in 1 ml of 5% gum arabic aqueous solution, through the canula for the drug administration. The bile was collected at hourly intervals for 6 hours after the drug administration. Defining the volume of the bile secreted for one hour before the drug administration as 100%, the volume secreted at hourly intervals after the drug administration was expressed in %, as shown in Table 2.
# The mean volume secreted for one hour before the drug administration was 1798 μl.
# This suspension was used as a choleretic of the present invention. A male mongrel dog weighing 8.8 kg was fasted overnight and anesthetized by subcutaneous injection of 1.0 mg/kg of urethane and laparotomized. One canula was inserted into the common bile duct and directed to the liver for collection of the bile, and the other canula was also inserted into the duodenum for the drug administration. Subsequently, the cholecystic duct was ligated and the gallbladder bile was aspirated with an injection syringe. The operation was finished after suturing the peritoneum. The bile was collected for one hour from 30 minutes after the operation, and subsequently, 44 ml of the test drug prepared above (250 mg/kg) was given through the canula for the drug administration. The volume of the bile secreted for the first, second and third one hour after the drug administration were 2.2, 2.1 and 1.9 times larger, respectively, than that secreted for one hour before the drug administration.
# About 2.5 g of 9-propionyloxy-p-menth-1-en-8-ol was weighed accurately and suspended in 50 ml of 5% gum arabic aqueous solution. This suspension was used as a choleretic of the present invention. A male mongrel dog weighing 7.6 kg was fasted overnight and anesthetized by subcutaneous injection of 1.0 mg/kg of urethane and then laparotomized. One canula was inserted into the common bile duct and directed to the liver for collection of the bile, and the other canula into the duodenum for the drug administration. Subsequently, the cholecystic duct was ligated and the gallbladder bile was aspirated with an injection syringe. The operation was finished by suturing the peritoneum. The bile was collected for one hour from 30 minutes after the operation, and 50 ml (330 mg/kg) of the test drug prepared above was administered through the canula for the drug administration. The volume of the bile secreted for the first, second and third one hour after the drug administration was 3.2, 5.0 and 4.7 times larger, respectively, than that secreted for one hour before the drug administration.
SMILES,"Bile volume secreted after administration (bile secretion [1]; 250 mg/kg, 0-1 hr) [%]","Bile volume secreted after administration (bile secretion [1]; 250 mg/kg, 1-2 hr) [%]","Bile volume secreted after administration (bile secretion [1]; 250 mg/kg, 2-3 hr) [%]","Bile volume secreted after administration (bile secretion [1]; 250 mg/kg, 3-4 hr) [%]","Bile volume secreted after administration (bile secretion [1]; 250 mg/kg, 4-5 hr) [%]","Bile volume secreted after administration (bile secretion [1]; 80 mg/kg, 0-1 hr) [%]","Bile volume secreted after administration (bile secretion [1]; 80 mg/kg, 1-2 hr) [%]","Bile volume secreted after administration (bile secretion [1]; 80 mg/kg, 2-3 hr) [%]","Bile volume secreted after administration (bile secretion [1]; 80 mg/kg, 3-4 hr) [%]","Bile volume secreted after administration (bile secretion [1]; 80 mg/kg, 4-5 hr) [%]","Bile volume secreted after administration (bile secretion [1]; 750 mg/kg, 0-1 hr) [%]","Bile volume secreted after administration (bile secretion [1]; 750 mg/kg, 1-2 hr) [%]","Bile volume secreted after administration (bile secretion [1]; 750 mg/kg, 2-3 hr) [%]","Bile volume secreted after administration (bile secretion [1]; 750 mg/kg, 3-4 hr) [%]","Bile volume secreted after administration (bile secretion [1]; 750 mg/kg, 4-5 hr) [%]",further results
"CCC(O)c1ccccc1 (racemic) [Felicur, phenylpropanol, reference compound]",204,172,138,108,88,,,,,,,,,,,"Bile volume secreted after administration (bile secretion [2]; 50 mg/kg, 0-1 hr): 231%; Bile volume secreted after administration (bile secretion [2]; 50 mg/kg, 1-2 hr): 230%; Bile volume secreted after administration (bile secretion [2]; 50 mg/kg, 2-3 hr): 188%; Bile volume secreted after administration (bile secretion [2]; 50 mg/kg, 3-4 hr): 147%"
"C=C(C)C1CC=C(C)CC1 (centres unmarked) [p-Mentha-1,8-diene, p-mentha-1,8-diene]",104,108,109,108,104,101,100,100,94,91,111,125,128,131,128,"Bile volume secreted after administration (bile secretion [2]; 250 mg/kg, 0-1 hr): 220%; Bile volume secreted after administration (bile secretion [2]; 250 mg/kg, 1-2 hr): 213%; Bile volume secreted after administration (bile secretion [2]; 250 mg/kg, 2-3 hr): 185%; Bile volume secreted after administration (bile secretion [2]; 250 mg/kg, 3-4 hr): 110%; Bile volume secreted after administration (bile secretion [2]; 250 mg/kg, 4-5 hr): 85%"
"CC(C)[C@@H]1CC[C@@H](C)C[C@H]1O [1-Menthol, 1-menthol, reference compound]",,,,,,134,114,100,95,89,152,143,138,122,111,"Bile volume secreted after administration (bile secretion [1]; 230 mg/kg, 0-1 hr): 139%; Bile volume secreted after administration (bile secretion [1]; 230 mg/kg, 1-2 hr): 137%; Bile volume secreted after administration (bile secretion [1]; 230 mg/kg, 2-3 hr): 133%; Bile volume secreted after administration (bile secretion [1]; 230 mg/kg, 3-4 hr): 117%; Bile volume secreted after administration (bile secretion [1]; 230 mg/kg, 4-5 hr): 111%"
